For data set [1], the system named is SJ-G2 glioblastoma. Set-up: method as in PMID 36142383. To be noted: MTT assay, 72 h; cited from earlier work. A general note: Formazan colour is commonly taken as a measure of viable cells.
The test system of data set [2] is Du145 prostate. Set-up: method as in PMID 36142383. To be noted: MTT assay, 72 h; cited from earlier work.
Data set [3] concerns U87 glioblastoma. More on the design: method as in PMID 36142383. To be noted: MTT assay, 72 h; cited from earlier work.
In data set [4] the test system is HT29 colon. Set-up: method as in PMID 36142383. Particulars: MTT assay, 72 h; cited from earlier work.
For data set [5], the system named is MCF-7 breast. More on the design: method as in PMID 36142383. Particulars: MTT assay, 72 h; cited from earlier work.
Data set [6] has as its system H460 lung. More on the design: method as in PMID 36142383. Particulars: MTT assay, 72 h; cited from earlier work.
Data set [7] concerns MIA pancreas. Set-up: method as in PMID 36142383. Particulars: MTT assay, 72 h; cited from earlier work.
Data set [8] concerns A2780 ovarian. More on the design: method as in PMID 36142383. Particulars: MTT assay, 72 h; cited from earlier work.
Data set [9] concerns ADDP-resistant ovarian variant. More on the design: method as in PMID 36142383. Particulars: MTT assay, 72 h; cited from earlier work.
In data set [10] the test system is A431 skin. More on the design: method as in PMID 36142383. To be noted: MTT assay, 72 h; cited from earlier work.
Data set [11] concerns BE2-C neuroblastoma. More on the design: method as in PMID 36142383. To be noted: MTT assay, 72 h; cited from earlier work.
For data set [12], the system named is non-tumour derived MCF10A breast line. More on the design: method as in PMID 36142383. To be noted: MTT assay, 72 h; cited from earlier work.
Data set [13] deals with A2780 ovarian. Description: MTT growth inhibition assay, A2780. In kind it is cell-based, human. Particulars: 72 h.
For data set [14], the system named is SJ-G2 glioblastoma. Kind of data set: MTT growth inhibition assay, SJ-G2. Particulars: 72 h. The class given is cell-based, human.
For data set [15], the system named is H460 lung. Description: MTT growth inhibition assay, H460. The class given is cell-based, human. Particulars: 72 h.
For data set [16], the system named is panel of cell lines. Description: MTT growth inhibition assay, whole panel of cell lines. In kind it is cell-based, human. To be noted: average over the cell lines tested, MTT assay, 72 h.
The nature of data set [17]: Reduction experiments with AsA by 1H-NMR and 1D-195Pt-NMR. Particulars: D2O, 37 °C; for T50% (approximate time at which 50% reduction occurs): 10 mM PBS (~7.4 pH), 1H-NMR; for extent of reduction 1 h after the final 1H-NMR experiment (1D-195Pt-NMR): PBS, regions −2800 and 400 ppm. The class given is physicochemical. The source says: Platinum(IV) complexes are reduced to their platinum(II) precursors by intracellular biological reducing agents such as AsA or GSH in tumour cells. However, the precise mechanism by which reduction occurs is not fully understood. In this paper, reduction reaction experiments were undertaken on the synthesised platinum(IV) complexes, 1–8, with the aid of ^1H-NMR and 1D-^195Pt-NMR spectroscopy. The method used for the reduction reaction experiments was adapted from the literature without modifications. A total of 10 mM PBS (~7.4 pH) was selected as media, and AsA was used as the biological reducing agent to investigate the reduction property of 1–8. Prior to the reduction reaction experiments, a control was prepared where each metal complex was dissolved with PBS in D2O. 1D-^195Pt-NMR was measured within the regions of −2800 and 400 ppm (30 min per region), at 37 °C. This was undertaken to confirm that the PBS would not interfere with the reduction process of the metal complexes. […] The approximate time points for the studied complexes at which an estimated 50% reduction had occurred, in the presence of AsA, as represented by T50%, are summarised in Table 6.
The reduction properties of 1–8 were monitored using ^1H-NMR and 1D-^195Pt-NMR spectroscopy on a 400 MHz Bruker (Melbourne, VIC, Australia) Avance Spectrometer. A sequence of ^1H-NMR experiments was carried out for 1 h at 37 °C, followed by 1D-^195Pt-NMR within the regions of −2800 and 400 ppm. An amount of 10 mM PBS (~7.4 pH) was transferred to a vial and reduced to dryness through rotary evaporation. AsA (~1 mg) was combined with the metal complex (~5 mg) and transferred to the vial containing the dried PBS. A total of 600 µL of D2O was then added to the vial to dissolve the complex, AsA, and the PBS together.

The nature of data set [18]: Lipophilicity by HPLC (log kw). The class given is physicochemical. To be noted: for log kw: chromatographic lipophilicity index, extrapolated to 100% d.i.H2O; for log kw (y-intercept of log k versus [CH3CN] % plot, Figure S80): linear fit. The source says:
For lipophilicity measurements, HPLC was utilised instead of the traditional shake-flask method, as described previously. Recent studies have also reported the efficiency of HPLC in measuring the lipophilicity of compounds [79, 80]. Each complex was eluted under several isocratic ratios. A standard curve was generated to calculate the log value of the capacity factor (log k) according to Equation (1). Following Equation (2), the percentage of organic solvent (CH3CN) in the mobile phase from each isocratic run was plotted against log kw (Figure S80). Log kw is the chromatographic lipophilicity index or measure of lipophilicity of the complex, so a higher value corresponds to greater lipophilicity. Because the selected axial ligands in this study contain F, Cl, Br, and I, it was only appropriate to determine the influence of the halogens on the overall lipophilicity of the platinum(IV) complexes. […] Conversely, the least lipophilic complex was the phen derivative containing 4-FPA, 3, with a log kw of 0.25. Furthermore, for the phen derivatives, the order of increasing lipophilicity was 3 > 1 > 5 > 7, which corresponds to the order of increasing size of the halogens, F > Cl > Br > I. This pattern was also observed with the 5,6-Me2phen derivatives (4 > 2 > 6 > 8), thereby confirming that the halogens increased the order of lipophilicity accordingly based on their size.
For lipophilicity measurements, analytical HPLC was utilised. Elution profiles were acquired on an Agilent (Melbourne, VIC, Australia) Technologies 1260 Infinity instrument equipped with a Phenomenex Onyx^TM Monolithic C18-reverse phase column (100 × 4.6 mm, 5 µm pore size) (Sydney, NSW, Australia). The mobile phase consisted of solvents, A (0.06% TFA in d.i.H2O) and B (0.06% TFA in CH3CN/d.i.H2O (90:10)). Potassium iodide was used as an external dead volume marker to determine the dead time of the column. Retention times (TR) were measured at varying isocratic ratios ranging from 30 to 36% of solvent B at 1 mL·min^−1 mL. An injection volume of 10 µL was utilised. Capacity factors were determined according to Equation (1):(1) k=(TR−T0)/T0 where k is the capacity factor, TR is the retention time of the analyte, and T0 represents the dead time. A minimum of four different mobile compositions were used for each complex to calculate k. A linear plot was generated of log k against the concentration of CH3CN in the mobile phase to determine the value of log kw expressed by Equation (2):(2) logk=Sφ+logkw where S is the slope, φ is the concentration of the CH3CN in the mobile phase, and log kw represents the capacity factor of the complex in 100% d.i.H2O. Extrapolation of this linear plot to the y-intercept indicates the log kw value.

The subject of data set [19] is ADDP-resistant ovarian variant. Description: MTT growth inhibition assay, ADDP. In kind it is cell-based, human. Particulars: MTT assay, 72 h.
In data set [20] the test system is MCF-7 breast. Description: MTT growth inhibition assay, MCF-7. In kind it is cell-based, human. Particulars: MTT assay, 72 h.
Data set [21] deals with non-tumour derived MCF10A breast line. Kind of data set: MTT growth inhibition assay, MCF10A. The class given is cell-based, human. Particulars: 72 h.
For data set [22], the system named is HT29 colon. Kind of data set: MTT growth inhibition assay, HT29. The class given is cell-based, human. To be noted: MTT assay, 72 h.
Data set [23] deals with Du145 prostate. Description: MTT growth inhibition assay, Du145. In kind it is cell-based, human. Particulars: MTT assay, 72 h.
For data set [24], the system named is A431 skin. Kind of data set: MTT growth inhibition assay, A431. In kind it is cell-based, human. Particulars: 72 h.
Data set [25] has as its system HT29 colon cells. Description: ROS detection assay (DCFH-DA). In kind it is cell-based, human. Particulars: HT29 colon cells, treated at GI50 concentration (TBHP positive control 20 μM).
Data set [26] relates to U87 glioblastoma. Description: MTT growth inhibition assay, U87. The class given is cell-based, human. To be noted: 72 h.
The subject of data set [27] is BE2-C neuroblastoma. Description: MTT growth inhibition assay, BE2-C. The class given is cell-based, human. Particulars: 72 h.
In data set [28] the test system is MIA pancreas. Kind of data set: MTT growth inhibition assay, MIA. In kind it is cell-based, human. To be noted: 72 h.

“Also recorded” adds a separate entry of the source. Where two headings read alike, the source gives them in different places. A value given as a limit tells only on which side of the number the result lay.

Take `O=C1[O][Pt]2([NH][C@@H]3CCCC[C@H]3[NH]2)[O]C1=O` (relative stereo) [Oxaliplatin, trans-L-(1R,2R-diaminocyclohexane) oxalatoplatinum(II)]: the GI50 in data set [1] is 3000 ± 1200 nM; in data set [2], 2900 ± 400 nM; in [3], 1800 ± 200 nM; in data set [4], 900 ± 200 nM; in data set [5] it was 500 ± 100 nM; in data set [6], 1600 ± 100 nM. For the same compound, the GI50 was 900 ± 200 nM in data set [7]; 160 ± 100 nM in data set [8]; 800 ± 100 nM in [9]; 4100 ± 500 nM in data set [10]; 900 ± 200 nM in [11].

`N.N.O=C([O-])C1(C(=O)[O-])CCC1.[Pt+2]` [Carboplatin, cis-diammine(1,1-cyclobutanedicarboxylato) platinum(II)]: the GI50 in data set [1] is 5700 ± 200 nM; in data set [12], over 50000 nM; in data set [2], 15000 nM; in [3], over 50000 nM; in [4], over 50000 nM; in data set [5], over 50000 nM. Besides, the GI50 was 14000 nM in [6]; over 50000 nM in data set [7]; 9200 ± 2900 nM in data set [8]; over 50000 nM in [9]; 24000 nM in data set [10]; 19000 nM in data set [11].

As for `N[C@H]1CCCC[C@@H]1N.O=C(Cc1ccc(I)cc1)[O][Pt+2]1([OH])[N]2C=CC=c3ccc4c(c32)[N]1C=CC=4` [Complex 7, [Pt^IV(phen)(SS-DACH)(4-IPA)(OH)]^2+], the GI50 was 280 ± 42 nM in data set [13]; 590 ± 23 nM in data set [14]; 380 ± 59 nM in data set [15]; 432 ± 60 nM in data set [16]; 280 ± 24 nM in data set [19]; 490 ± 134 nM in [20]. The GI50 stood at 280 ± 30 nM in data set [21]; 220 ± 33 nM in data set [22]; 110 ± 25 nM in data set [23]; 500 ± 180 nM in data set [24]; 1010 ± 95 nM in data set [26]; 680 ± 38 nM in data set [27]. The compound further yielded a GI50 in [28] of 360 ± 40 nM. The “T50% (approximate time at which 50% reduction occurs)” value in [17] is given as 30 min. Further, the “extent of reduction 1 h after the final 1H-NMR experiment (1D-195Pt-NMR)” value in [17] is “partial reduction; also recorded: traces of platinum(IV) species were still observed”. Moreover, the log kw in [18] was 0.90. The “log kw (y-intercept of log k versus [CH3CN] % plot, Figure S80)” value in [18] was 0.895. In data set [25], the “ROS production 24 h” value stood at 211 ± 9.1 RFU. Also, the “ROS production 48 h” value in [25] is 281 ± 12 RFU. Moreover, the “ROS production 72 h” value in data set [25] was 322 ± 17 RFU.

For the compound `Cc1c(C)c2c3c4c1=CC=C[N]4[Pt+2]([OH])([O]C(=O)Cc1ccc(I)cc1)[N]3C=CC=2.N[C@H]1CCCC[C@@H]1N` [Complex 8, [Pt^IV(5,6-Me2phen)(SS-DACH)(4-IPA)(OH)]^2+], the 50% growth inhibitory concentration (GI50) in data set [13] amounted to 260 ± 45 nM; in data set [14], 520 ± 29 nM; in [15], 390 ± 33 nM; in [16], 387 ± 50 nM; in data set [19], 230 ± 15 nM; in data set [20], 420 ± 62 nM. For the same compound, the GI50 in data set [21] stood at 260 ± 22 nM; in [22], 178 ± 31 nM; in [23] it was 100 ± 21 nM; in [24], 430 ± 160 nM; in data set [26], 900 ± 58 nM; in data set [27], 650 ± 81 nM. This compound also had a 50% growth inhibitory concentration (GI50) in [28] of 300 ± 55 nM. The “T50% (approximate time at which 50% reduction occurs)” value in [17] lay in the range of 5 to 10 min. Also, in data set [17], the “extent of reduction 1 h after the final 1H-NMR experiment (1D-195Pt-NMR)” value was “complete reduction”. In [18], the log kw is reported as 1.19. Further, in data set [18], the “log kw (y-intercept of log k versus [CH3CN] % plot, Figure S80)” value is recorded as 1.1909. Further, the “ROS production 24 h” value in [25] is on record as 345 ± 19.3 RFU. In addition, in data set [25], the “ROS production 48 h” value came out at 406 ± 14 RFU. The “ROS production 72 h” value in [25] worked out at 466 ± 13 RFU.

In general, GI50 refers to the concentration at which growth is held to half of that of the control.

The record behind these values is PMC9611758, “Bioactive Platinum(IV) Complexes Incorporating Halogenated Phenylacetates” (Molecules, 2022).
